Reference: patent publication US9493466B2, “Treatment of cancer with TOR kinase inhibitors” (Signal Pharmaceuticals, LLC, priority 2011, dated 2016)

Assays:
NSCLC = assay: Phase 1/2 study Part B: tumor response, NSCLC; format: in vivo, human; details: 17 evaluable patients
Description: (§1) In Part B, subjects may start Compound 1 at the MTD and/or a lower dose level based on safety, PK and PD data from Part A. Approximately 150 subjects will be treated and evaluated for safety and preliminary antitumor activity after every two cycles of therapy. Tumor types include non-small cell lung cancer (NSCLC), glioblastoma multiforme (GBM), hepatocellular carcinoma (HCC), gastrointestinal neuroendocrine tumor of non-pancreatic origin (NET), diffuse large B-cell lymphoma (DLBCL), multiple myeloma (MM), and hormone receptor positive breast cancer (HRPBC). Up to 20 subjects will be enrolled in each tumor type.
Subjects will be evaluated for efficacy every 2 cycles through cycle 6 and every 3 cycles thereafter. The primary efficacy variable is response. Tumor assessments, including imaging (CT, MRI and/or PET) of the chest and abdomen and other sites as appropriate, will be performed during Screening. Subjects with brain lesions will also have brain scans at Screening and during follow-up tumor assessments. After Screening, tumor assessments (for all tumors except multiple myeloma) will be performed on completion of Cycles 2, 4 and 6 (i.e., on Cycles 3, 5 and 7/Day 1±7 days) and then every 3 months thereafter (e.g., Cycle 10 and 13/Day 1±7 days). Tumor assessment (for multiple myeloma and only NHL/DLBCL with known or suspected marrow involvement) (bone marrow aspiration and biopsy, with PD biomarker analysis, cytogenetic analysis if abnormally present at Screening) will be performed on completion of Cycles 4, 8, 12 and 16 only (i.e., on Cycles 5, 9, 13 and 17/Day 1±7 days). Cytogenetics need not be repeated if normal at Screening. […] Subjects will be evaluated for tumor response on completion of Cycle 2, 4, 6, and so on. […]
(§2) For Part B, efficacy variables to be analyzed include tumor response at the end of treatment, the proportion of subject alive and progression-free, and duration of response. […]

U87MG tumors = assay: U87MG human glioblastoma xenograft model (Compound 1); format: in vivo, SCID mice; details: for Tumor growth delay (TGD): to reach 1000 mm^3; for loss of initial body mass: end of first cycle (p<0.01)
Protocol: U87MG Human Glioblastoma Xenograft Model (Compound 1). Efficacy Studies: Groups of female SCID mice bearing U87MG tumors (n=8-10/group) were dosed orally with vehicle or Compound 1 throughout the study, starting when tumor volumes reached approximately 200 mm^3. The twice daily (BID) dose groups were dosed with a 10-hour separation between morning and evening doses. In the positive control group, rapamycin was administered Q3D via intraperitoneal (IP) route. At the end of each study, plasma and/or tumor samples were collected.
Cell Line and Culture. U87MG cell line was obtained from American Tissue Culture Collection (ATCC) (Gaithersberg, Md.) and grown in growth medium containing MEM, 2 mM L-glutamine, 0.1 mM non-essential amino acids and 1 mM sodium pyruvate and 10% fetal bovine serum (FBS). The cells were detached from tissue culture flasks using trypsin-EDTA. After centrifugation, the cell pellets were suspended in phosphate buffered saline (PBS) and counted using a hemocytometer. The final volume was adjusted to 5×10^6 cells/0.1 mL of PBS.
Tumor Cell Inoculation. Mice were anesthetized with inhaled isoflurane and then inoculated with U87MG tumor cells subcutaneously on the right hind leg with 0.1 mL of a single cell suspension in PBS using a sterile 1 mL syringe fitted with a 26 gauge needle. Following inoculation, the mice were returned to microisolator cages
Randomization of Animals. Following inoculation, tumors were allowed to grow to about 200 mm^3 prior to randomization. The typical number of days required for tumors to reach 200 mm^3 was 14-15 days. The tumor of each animal was measured and animals with tumors ranging between 175-250 mm^3 were included in the study. Animals from the pool were then distributed randomly into various cages and the cages were randomly assigned to vehicle, positive control, or test article groups. All of the mice were tagged with metal ear tags on the right ear.
Test Article Preparation and Administration. Suspensions of Compound 1 were prepared in aqueous 0.5% CMC and 0.25% Tween-80. The formulations were homogenized using a Teflon™ pestle and mortar (Potter-Elvehjem tissue grinder). Between the doses, the formulated compound was stored under constant stirring using a magnetic stirrer at 4° C. in the dark. The test article and vehicle were administered by oral gavage. The positive control, rapamycin, was prepared as solution in 2% ethanol, 45% polyethyleneglycol 400, and 53% saline and administered by IP injection. Sterile syringes and gavage needles were used for compound administration. All of the procedures including injections were done in biosafety cabinets disinfected with 70% ethanol prior to use.
Tumor Measurements. Tumor volumes were determined prior to the initiation of treatment and were considered as the starting volumes. Thereafter, tumors were measured twice a week for the duration of the study. The long and short axes of each tumor were measured using a digital caliper in millimeters. Tumor volumes were calculated using the formula: width^2×length/2. The tumor volumes were expressed in cubic millimeters (mm^3).
Tumor Growth Delay (TGD) Calculations. Tumor growth delay is the difference in days for treated versus control tumors to reach a volume of 1000 mm^3. The TGD was calculated from the data plotted in a graph format.
Body Weight Measurements. Initial body weights were recorded prior to the initiation of treatment using a digital scale. The percent body weight change during the course of the study was calculated using initial body weight measurements. Body weights of each animal were measured twice a week at the same time as the tumor measurements. Body weights were measured more frequently if significant decreases were noted during the course of the study.

NET = assay: Phase 1/2 study Part B: tumor response, NET; format: in vivo, human
Description: as §1
Subjects will be evaluated for efficacy every 2 cycles through cycle 6 and every 3 cycles thereafter. The primary efficacy variable is response. Tumor assessments, including imaging (CT, MRI and/or PET) of the chest and abdomen and other sites as appropriate, will be performed during Screening. Subjects with brain lesions will also have brain scans at Screening and during follow-up tumor assessments. After Screening, tumor assessments (for all tumors except multiple myeloma) will be performed on completion of Cycles 2, 4 and 6 (i.e., on Cycles 3, 5 and 7/Day 1±7 days) and then every 3 months thereafter (e.g., Cycle 10 and 13/Day 1±7 days). Tumor assessment (for multiple myeloma and only NHL/DLBCL with known or suspected marrow involvement) (bone marrow aspiration and biopsy, with PD biomarker analysis, cytogenetic analysis if abnormally present at Screening) will be performed on completion of Cycles 4, 8, 12 and 16 only (i.e., on Cycles 5, 9, 13 and 17/Day 1±7 days). Cytogenetics need not be repeated if normal at Screening. Tumor response will be based on Response Evaluation Criteria in Solid Tumors (RECIST 1.1), International Workshop Criteria (IWC) for NHL/DLBCL or International Uniform Response Criteria (IURC) for Multiple Myeloma, and RANO for GBM, using the post resection MRI scan as the baseline. Given the difficulty in assessing tumor response following salvage surgery, the primary efficacy endpoint for GBM will be the proportion of subjects progression-free at 6 months from Day 1 relative to efficacy evaluable subjects in the GBM type. Subjects will be evaluated for tumor response on completion of Cycle 2, 4, 6, and so on. A descriptive analysis of evidence of anti-tumor activity will be provided based on clinical and radiographic assessments by the investigator, which includes assessment of target lesion, non-target lesion, new lesion and overall response.
as §2

Question: Which results are given for CO[C@H]1CC[C@H](N2C(=O)CNc3ncc(-c4ccc(C(C)(C)O)nc4)nc32)CC1 [Compound 1, 7-(6-(2-hydroxypropan-2-yl)pyridin-3-yl)-1-((1r,4r)-4-methoxycyclohexyl)-3,4-dihydropyrazino-[2,3-b]pyrazin-2(1H)-one]?
Answer: patients meeting Partial Response (RECIST 1.1) (NSCLC): 1 patient; patients meeting at least Stable Disease (RECIST 1.1) (NSCLC): 11 patients; best target lesions responses (reduction) (NSCLC; 45 mg QD start): up to 35%; average tumor volume (U87MG tumors; 5 mg/kg BID oral, Day 24 (dosing from Day 14)): 149±9 mm^3; average tumor volume (U87MG tumors; 5 mg/kg BID oral, Day 31): 208±31 mm^3; tumor volume reduction compared with vehicle control (U87MG tumors; 5 mg/kg BID oral, Day 31): 91%; change in body weight (U87MG tumors; 5 mg/kg BID, 18 days): No significant change; Tumor growth delay (TGD) (U87MG tumors; 5 mg/kg BID): 11 days; average tumor volume (U87MG tumors; 10 mg/kg BID oral, Day 24 (dosing from Day 14)): 96±4 mm^3; average tumor volume (U87MG tumors; 10 mg/kg BID oral, Day 31): 96±13 mm^3; tumor volume reduction compared with vehicle control (U87MG tumors; 10 mg/kg BID oral, Day 31): 96%; loss of initial body mass (U87MG tumors; 10 mg/kg BID): about 10%; Tumor growth delay (TGD) (U87MG tumors; 10 mg/kg BID): 20 days; average tumor volume (U87MG tumors; 25 mg/kg Q2D oral, Day 24 (dosing from Day 14)): 101±8 mm^3; average tumor volume (U87MG tumors; 25 mg/kg Q2D oral, Day 31): 116±15 mm^3; tumor volume reduction compared with vehicle control (U87MG tumors; 25 mg/kg Q2D oral, Day 31): 95%; loss of initial body mass (U87MG tumors; 25 mg/kg Q2D): about 10%; Tumor growth delay (TGD) (U87MG tumors; 25 mg/kg Q2D): 17 days; tumor regression (U87MG tumors; 5 and 10 mg/kg BID and 25 mg/kg Q2D, persisted until Day 31): showed tumor regression; lowest efficacious dose as determined by 65% tumor volume inhibition (U87MG tumors; QD oral, 3 weeks): 1 mg/kg; change in body weight (U87MG tumors; QD study, 3 weeks, any of the groups): No statistically significant change; tumor volume reduction (U87MG tumors; all dose levels tested (0.5, 1, 3, 5 mg/kg QD, 3 weeks), Day 34): Significant (p<0.001) tumor volume reduction; tumor metabolic activity by PET imaging (NET; majority of subjects): reductions in tumor metabolic activity; patients meeting Stable Disease (RECIST 1.1) (NET; patients with sufficient follow up): Six patients; endocrine hormone markers (chromogranin, gastrin, serotonin, glucagon) (NET; some patients): reductions; carcinoid syndrome-related symptoms (NET; some patients with refractory baseline symptoms): improvements
